One data set deals with Caco-2 cells. Briefly: Transepithelial transportation of catechin from digests across the Caco-2 monolayer. It counts as in vitro ADME, Human. The following applies: 4 h; digests diluted 1/5. The procedure:
The in vitro gastrointestinal digestion was simulated regarding the procedures of Ozkan et al. and Sessa et al., with minor modifications. This assay involves two sequential stages: gastric digestion and bile salt/pancreatin digestion. For the gastric digestion, the samples containing 1.3 mg/mL final concentration of pepsin at pH 2 were placed in a water bath (GFL 1092, Burgwedel, Germany) at 37 °C and 100 rpm for a 2 h incubation period. To simulate intestinal digestion, gastric chyme was mixed with 0.175 mg/mL pancreatin and 1.10 mg/mL bile salts at pH 6.5, and then placed in a water bath at 37 °C and 100 rpm for 2 h incubation. […]
The transport trial was carried out based on Wu et al.. […] TEER values of the cells were determined before the experiment, after the last sampling and 24 h after the incubation period. […]
The quantification of phenolic compounds in rosehip infusions was conducted by UPLC based on Ozkan et al., with minor changes. Digests obtained from apical and basolateral sides were analyzed by a Waters Acquity UPLC system (Waters Co., Milford, MA, USA) combined with a diode array detector (DAD). […] Catechin concentration was determined by using its authentic standard. […] The results were expressed as mg catechin per 100 g dw (dry weight) of rosehip. […]

On the set-up of data set [1]: method as in doi:10.1111/jfpp.16096. The note with it: rosehip infusions by TT, HPP and PEF, depending on the treatment; cited from earlier work.
Details of data set [2]: method as in PMID 31100382. The note with it: ex vivo; after one hour; cited from earlier work.
On the set-up of data set [3]: method as in PMID 31100382. The following applies: rats; oral administration; after one hour; cited from earlier work.
On the set-up of data set [4]: method as in earlier work. The note with it: mice, cited from earlier work.
The conditions of data set [5]: cited from earlier work.
A further data set has as its system cellular monolayer. Further details: method as in doi:10.1021/acsomega.8b03499. The note with it: sweet cherry phenolics; cited from earlier work.
Details of data set [6]: method as in PMID 24191680. The following applies: sour cherry fruit and nectar samples, depending on ingredients and processing; cited from earlier work.
Details of data set [7]: method as in doi:10.1016/j.jff.2018.10.025. The following applies: rats; after 6 h; cited from earlier work.
On the set-up of data set [8]: method as in Rodríguez-Roque et al. [11]. The following applies: fruit juice blends, traditional thermal treatment; ref Rodríguez-Roque et al. [11]; cited from earlier work.

Where two headings read alike, the source gives them in different places.

On to `O.Oc1cc(O)c2c(c1)O[C@H](c1ccc(O)c(O)c1)[C@@H](O)C2` [catechin, Catechin], for which, in the data set with Caco-2 cells, the “Apical Recovery (%) of catechin” value is listed as 68–69%. Moreover, the “catechin lost after gastrointestinal digestion” value in data set [1] is 51.8–61.0%. Also, the “permeation across the intestinal tissue” value in data set [2] is 12.5 µg. In addition, the “maximum concentration in plasma” value in data set [3] is 120 ± 3.97 ng/mL. Moreover, the “maximum plasma catechin level” value in data set [4] (sour mangosteen rind) is 1.10 µg/mL.
With `O=C(O[C@@H]1Cc2c(O)cc(O)cc2O[C@@H]1c1ccc(O)c(O)c1)c1cc(O)c(O)c(O)c1` [epicatechin gallate], in data set [5] (five healthy 22-year-old women), the “amounts in plasma with chocolate food matrix” value (“amounts in plasma” for short) is given as “reduced” and the “form detected in plasma” value was “aglycon form”.
In the case of `Oc1cc(O)c2c(c1)O[C@H](c1ccc(O)c(O)c1)[C@H](O)C2` [epicatechin], in the data set on cellular monolayer, the “quantity that crossed the cell monolayer” value is reported as 0.37%. Further, the basolateral side recovery in data set [6] is 1.1–3.8%. Also, the “maximum plasma epicatechin concentration” value in [4] (sour mangosteen peel) was 62.03 µg/mL. In addition, in data set [5] (five healthy 22-year-old women), the “amounts in plasma” value is on record as “no alteration” and the “form detected in plasma” value was “conjugated metabolites”.
Consider `O=C(O[C@@H]1Cc2c(O)cc(O)cc2O[C@@H]1c1cc(O)c(O)c(O)c1)c1cc(O)c(O)c(O)c1` [epigallocatechin gallate], for which, in data set [5] (five healthy 22-year-old women), the “amounts in plasma” value is on record as “reduced” and the “form detected in plasma” value is “aglycon form”.
As for `Oc1cc(O)c2c(c1)O[C@H](c1cc(O)c(O)c(O)c1)[C@H](O)C2` [epigallocatechin], in data set [5] (in vivo), the “amounts in plasma” value is “no alteration” and the “form detected in plasma” value is “conjugated metabolites”.
`Oc1cc(O)c2c(c1)OC(c1ccc(O)c(O)c1)C(O)C2` (stereo not drawn) [free catechin]: in data set [7], the “bioavailability (plasma catechin values)” value was 0.241 µM·h.
For `O=C1O[C@H]([C@@H](O)CO)C(O)=C1O` [vitamin C], the bioaccessibility in data set [8] is 11.1%.

The values are drawn from paper PMC9265957, “Bioavailability of Rosehip (Rosa canina L.) Infusion Phenolics Prepared by Thermal, Pulsed Electric Field and High Pressure Processing” (Foods, 2022).
